Experiment [1] can be described thus: Ratio of Thrombin Kass/trypsin Kass.
Experiment [2] is described as follows: Ratio of Thrombin Kass/tissue plasminogen activator Kass.
Experiment [3] can be described thus: Ratio of Thrombin Kass/plasmin Kass.
Experiment [4] can be described thus: Ratio of Thrombin Kass/Urokinase Kass.

Where a SMILES comes first, the peptide text is derived from it.

Experimental findings from ChEMBL document CHEMBL1129192, “D-Phe-Pro-p-Amidinobenzylamine: A potent and highly selective thrombin inhibitor” (Bioorg Med Chem Lett, 1996) are described below.

In the case of `NC(N)=NCCCCNC(=O)[C@@H]1CCCN1C(=O)[C@H](N)Cc1ccccc1` (HELM PEPTIDE1{[dF].P.[N=C(N)NCCCCN[*:1]]}$$$$V2.0), the Selectivity in experiment [1] worked out at 33; in experiment [2] it was 920; in experiment [3], 4600; in experiment [4], 31000.

For `N=C(N)c1ccc(CNC(=O)[C@@H]2CCCN2C(=O)[C@H](N)Cc2ccccc2)cc1`, the Selectivity in experiment [1] is 130; in experiment [2], 170000; in experiment [3], 26000; in experiment [4] it was 400000.

For the molecule `NC(N)=NCCC[C@@H](C=O)NC(=O)[C@@H]1CCCN1C(=O)[C@H](N)Cc1ccccc1`, the Selectivity in experiment [1] is 5.1; in experiment [2], 1800; in experiment [3], 390; in experiment [4] it was 13000.
